Data published in patent US10577395B2 (priority 2014, dated 2020).
In brackets after ≈: the same amount, converted by molar mass. Read-outs that look alike come from different tables or passages of the source. Marks after values point to notes of the source that are not given here.

Experiments:
[1] = test system: vancomycin-sensitive Staphylococcus aureus (VSSA strain ATCC 25923); test: Antimicrobial assay, MIC, vancomycin-sensitive S. aureus; format: cell-based; settings: Staphylococcus aureus, ATCC 25923
Experimental: (§1) Assays were carried out following the methods of Clinical and Laboratory Standards Institute; Methods for Dilution Antimicrobial Susceptibility Tests for Bacteria That Grow Aerobically; Approved Standard, […].; CLSI document M07-A8; Clinical and Laboratory Standards Institute: Wayne, Pa., 2009.
(§2) This diluted bacterial stock solution was then inoculated into a well of a V-shaped 96-well glass coated microtiter plate, supplemented with serial diluted aliquots of the antibiotic solution DMSO (4 μL), to achieve a total assay volume of 0.1 mL. The plate was then incubated at 37° C. for 18 hours, after which minimal inhibitory concentrations (MICs) were determined by monitoring the cell growth (observed as a pellet) in the wells. The lowest concentration of antibiotic (in μg/mL) capable of eliminating the cell growth in the wells is reported as the MIC.

[2] = test system: Enterococcus faecium (VanA VRE, ATCC BAA-2317); test: Antimicrobial assay, MIC, VanA E. faecium; format: cell-based; settings: Enterococcus faecium
Experimental: as §1, §2

[3] = test system: methicillin and oxacillin-resistant Staphylococcus aureus subsp. aureus (MRSA strain ATCC 43300); test: Antimicrobial assay, MIC, MRSA; format: cell-based; settings: Staphylococcus aureus
Experimental: as §1, §2

[4] = test system: panel of Gram-positive bacteria (VSSA, MRSA, VanA and VanB VRE); test: Antimicrobial assay, MIC across the bacterial panel; format: cell-based, S. aureus, E. faecalis, E. faecium; settings: for MIC: Staphylococcus aureus, read-out: MICs across the bacterial panel, vancomycin-sensitive and vancomycin-resistant strains
Experimental: as §1, §2

[5] = test system: vancomycin-resistant Enterococcus faecalis (VanB VRE, strain ATCC 51299); test: microbe, parasite or virus in culture; format: cell-based; settings: Enterococcus faecalis
Experimental: as §1, §2

[6] = test system: vancomycin-resistant Enterococcus faecalis (VanA VRE, BM4166); test: microbe, parasite or virus in culture; format: cell-based; settings: for MIC: Enterococcus faecalis, VRE
Experimental: as §1, §2

VanA VRE = test: Antimicrobial assay, MIC for VanA VRE; format: cell-based, E. faecalis and E. faecium
Experimental: as §1, §2

[7] = Binding of model ligand 11 (Y = NH), association constant Ka; settings: ratio of Ka for ligand 11 to ligand 12
[8] = cited from earlier work; for ligand, Ka (M^−1), 11, Y = NH: association constant, ligand 11 (Y = NH)
[9] = association constant, ligand 12 (Y = O); cited from earlier work
[10] = test system: vancomycin-resistant Enterococcus faecalis (VanA VRE, BM4166); settings: E. faecalis (BM4166, VanA VRE); earlier studies; cited from earlier work
[11] = ATCC25923, read-out: MIC, sensitive S. aureus, serum concentration 10%, 10%
[12] = ATCC25923, read-out: MIC, sensitive S. aureus, serum concentration 100%, 100%
[13] = ATCC25923, 25%, read-out: MIC, sensitive S. aureus, serum concentration 25%
[14] = ATCC25923, read-out: MIC, sensitive S. aureus
[15] = read-out: MIC, Van A E. faecium, serum concentration 10%
[16] = read-out: MIC, Van A E. faecium, serum concentration 25%
[17] = read-out: MIC, Van A E. faecium, serum concentration 100%
[18] = read-out: MIC, MRSA S. aureus, serum concentration 10%
[19] = read-out: MIC, MRSA S. aureus, serum concentration 25%
[20] = read-out: MIC, MRSA S. aureus, serum concentration 100%
[21] = read-out: MIC, Van B E. faecalis, serum concentration 10%
[22] = read-out: MIC, Van B E. faecalis, serum concentration 25%
[23] = read-out: MIC, Van B E. faecalis, serum concentration 100%
[24] = read-out: MIC, VanB E. faecalis
[25] = read-out: MIC, Van A E. faecalis, serum concentration 10%
[26] = read-out: MIC, Van A E. faecalis, serum concentration 25%
[27] = read-out: MIC, Van A E. faecalis, serum concentration 100%
[28] = read-out: MIC, VanA E. faecalis

Compound	MIC [1, 11] [µg/mL]	MIC [1, 12] [µg/mL]	MIC [1, 13] [µg/mL]	MIC [1, 14] [µg/mL]	MIC [2, 15] [µg/mL]	MIC [2, 16] [µg/mL]	MIC [2, 17] [µg/mL]	MIC ([2]; read-out: MIC, VanA E. faecium) [µg/mL]	MIC ([3]; read-out: MIC, MRSA S. aureus) [µg/mL]	MIC [3, 18] [µg/mL]	MIC [3, 19] [µg/mL]	MIC [3, 20] [µg/mL]	MIC [5, 21] [µg/mL]	MIC [5, 22] [µg/mL]	MIC [5, 23] [µg/mL]	MIC [5, 24] [µg/mL]	MIC [6, 25] [µg/mL]	MIC [6, 26] [µg/mL]	ligand, Ka (M^−1), 11, Y = NH [8] [M⁻¹]	ligand, Ka (M^−1), 12, Y = O [9] [M⁻¹]	other results
CN[C@H](CC(C)C)C(=O)N[C@H]1C(=O)N[C@@H](CC(N)=O)C(=O)N[C@H]2C(=S)NC3C(=O)N[C@H](C(=O)N[C@H](C(=O)O)c4cc(O)cc(O)c4-c4cc3ccc4O)[C@H](O)c3ccc(c(Cl)c3)Oc3cc2cc(c3OC2OC(CO)C(O)[C@H](O)[C@@H]2O[C@H]2CC(C)(N)[C@H](O)[C@H](C)O2)Oc2ccc(cc2Cl)[C@H]1O (stereo partly shown) [Compound 2, [Ψ[C(═S)NH]Tpg^4]vancomycin]	> 32	> 32	> 32	> 32	> 32	> 32	> 32	> 32	> 32	> 32	> 32	> 32	> 32	> 32	> 32	> 32	> 32	> 32			MIC [4]: > 32 µg/mL; MIC [6, 27]: > 32 µg/mL; MIC [6, 28]: > 32 µg/mL
CN[C@H](CC(C)C)C(=O)N[C@H]1C(=O)N[C@@H](CC(N)=O)C(=O)N[C@H]2C(=N)NC3C(=O)N[C@H](C(=O)N[C@H](C(=O)O)c4cc(O)cc(O)c4-c4cc3ccc4O)[C@H](O)c3ccc(c(Cl)c3)Oc3cc2cc(c3OC2OC(CO)C(O)[C@H](O)[C@@H]2O[C@H]2CC(C)(NCc3ccc(-c4ccc(Cl)cc4)cc3)[C@H](O)[C@H](C)O2)Oc2ccc(cc2Cl)[C@H]1O (stereo partly shown) [Compound 6, N-4-(4′-chlorobiphenyl)methyl [Ψ[C(═NH)NH]Tpg^4]-vancomycin]	0.03 (≈ 0.0182 µM)	1 (≈ 0.606 µM)	0.12 (≈ 0.0728 µM)	0.03 (≈ 0.0182 µM)	0.005 (≈ 0.00303 µM)	0.06 (≈ 0.0364 µM)	0.5 (≈ 0.303 µM)	0.005 (≈ 0.00303 µM)	0.06 (≈ 0.0364 µM)	0.06 (≈ 0.0364 µM)	0.24 (≈ 0.146 µM)	1 (≈ 0.606 µM)	0.06 (≈ 0.0364 µM)	0.12 (≈ 0.0728 µM)	1 (≈ 0.606 µM)	0.06 (≈ 0.0364 µM)	0.005 (≈ 0.00303 µM)	0.06 (≈ 0.0364 µM)			potency relative to Compound 17, on average across the panel [4]: 15 fold; increase in activity against VanA VRE relative to vancomycin (Compound 1) (VanA VRE): 50,000 fold; MIC (VanA VRE; Enterococcus, VRE, read-out: MIC against VanA VRE): 0.005 µg/mL (≈ 0.00303 µM); improvement in activity against VanA VRE on introduction of the (4-chlorobiphenyl)methyl group (VanA VRE; relative to the analogue without CBP group): 100 fold; MIC [6, 27]: 0.5 µg/mL (≈ 0.303 µM); MIC [6, 28]: 0.005 µg/mL (≈ 0.00303 µM)
[Ψ[CH2NH]Tpg^4]vancomycin aglycon [Compound 10]																			4800	5200	Ka(11/12) [7]: 0.9; VanA MIC [10]: 31 µg/mL
CN[C@H](CC(C)C)C(=O)N[C@H]1C(=O)N[C@@H](CC(N)=O)C(=O)N[C@H]2C(=O)N[C@H]3C(=O)N[C@H](C(=O)N[C@H](C(=O)O)c4cc(O)cc(O)c4-c4cc3ccc4O)[C@H](O)c3ccc(c(Cl)c3)Oc3cc2cc(c3O)Oc2ccc(cc2Cl)[C@H]1O [Compound 7, vancomycin aglycon]																			170000	120	Ka(11/12) [7]: 1400; VanA MIC [10]: 640 µg/mL
CN[C@H](CC(C)C)C(=O)N[C@H]1C(=O)N[C@@H](CC(N)=O)C(=O)N[C@H]2C(=N)NC3C(=O)N[C@H](C(=O)N[C@H](C(=O)O)c4cc(O)cc(O)c4-c4cc3ccc4O)[C@H](O)c3ccc(c(Cl)c3)Oc3cc2cc(c3O)Oc2ccc(cc2Cl)[C@H]1O [Compound 9, [Ψ[C(═NH)NH]Tpg^4]vancomycin aglycon]																			73000	69000	Ka(11/12) [7]: 1.05; binding affinity for both target ligands relative to vancomycin aglycon with D-Ala-D-Ala ([8]; D-Ala-D-Ala and D-Ala-D-Lac): ≤ 2 fold; VanA MIC, μg/mL ([6]; E. faecalis (BM4166, VanA VRE), tested herein alongside Compounds 1-6): 1^b μg/mL
CN[C@H](CC(C)C)C(=O)N[C@H]1C(=O)N[C@@H](CC(N)=O)C(=O)N[C@H]2C(=S)NC3C(=O)N[C@H](C(=O)N[C@H](C(=O)O)c4cc(O)cc(O)c4-c4cc3ccc4O)[C@H](O)c3ccc(c(Cl)c3)Oc3cc2cc(c3O)Oc2ccc(cc2Cl)[C@H]1O [Compound 8, [Ψ[C(═S)NH]Tpg^4]vancomycin aglycon]																			170	11	VanA MIC [10]: >640 µg/mL
CN[C@H](CC(C)C)C(=O)N[C@H]1C(=O)N[C@@H](CC(N)=O)C(=O)N[C@H]2C(=S)NC3C(=O)N[C@H](C(=O)N[C@H](C(=O)O)c4cc(O)cc(O)c4-c4cc3ccc4O)[C@H](O)c3ccc(c(Cl)c3)Oc3cc2cc(c3OC2OC(CO)C(O)[C@H](O)[C@@H]2O[C@H]2CC(C)(NCc3ccc(-c4ccc(Cl)cc4)cc3)[C@H](O)[C@H](C)O2)Oc2ccc(cc2Cl)[C@H]1O (stereo partly shown) [Compound 5, N-4-(4′-chlorobiphenyl)-methyl [Ψ[C(═S)NH]Tpg^4]vancomycin]	2 (≈ 1.2 µM)	4 (≈ 2.4 µM)	2 (≈ 1.2 µM)	2 (≈ 1.2 µM)	4 (≈ 2.4 µM)	4 (≈ 2.4 µM)	8 (≈ 4.8 µM)	4 (≈ 2.4 µM)	2 (≈ 1.2 µM)	2 (≈ 1.2 µM)	4 (≈ 2.4 µM)	4 (≈ 2.4 µM)	2 (≈ 1.2 µM)	2 (≈ 1.2 µM)	8 (≈ 4.8 µM)	2 (≈ 1.2 µM)	4 (≈ 2.4 µM)	4 (≈ 2.4 µM)			MIC [4]: 2 to 4 µg/mL (≈ 1.2 to 2.4 µM); MIC [6, 27]: 8 µg/mL (≈ 4.8 µM); MIC [6, 28]: 4 µg/mL (≈ 2.4 µM)
